Experimental data: ChEMBL document CHEMBL1142743, “8-Piperazinyl-2,3-dihydropyrrolo[3,2-g]isoquinolines: potent, selective, orally bioavailable 5-HT1 receptor ligands” (Bioorg Med Chem Lett, 2005)
Active and inactive are the calls of the source. No cut-off for these calls is given here.

Assays:
[1] = biological target: T1, 5-hydroxytryptamine receptor 1A (Homo sapiens, UniProt P08908); assay: Mean binding affinity towards 5-hydroxytryptamine 1A receptor using [3H]-5-HT or [3H]8-OH-DPAT as the radioligand
T1 sequence (P08908 whole entry): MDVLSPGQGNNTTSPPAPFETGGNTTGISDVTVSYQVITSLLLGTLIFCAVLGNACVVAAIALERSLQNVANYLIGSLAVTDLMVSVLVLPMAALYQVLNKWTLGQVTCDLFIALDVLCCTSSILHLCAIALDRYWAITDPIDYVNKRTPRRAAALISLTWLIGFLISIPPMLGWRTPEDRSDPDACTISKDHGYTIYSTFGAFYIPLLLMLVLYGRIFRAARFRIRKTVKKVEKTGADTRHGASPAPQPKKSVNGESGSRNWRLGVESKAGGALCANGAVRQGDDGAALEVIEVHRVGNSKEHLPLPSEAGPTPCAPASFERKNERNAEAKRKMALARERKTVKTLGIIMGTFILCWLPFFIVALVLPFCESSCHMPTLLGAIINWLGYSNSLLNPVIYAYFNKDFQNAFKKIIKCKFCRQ

[2] = biological target: T2, 5-hydroxytryptamine receptor 1B (Homo sapiens, UniProt P28222); assay: Mean binding affinity towards 5-hydroxytryptamine 1B receptor using [3H]5-HT or [3H]-8-OH-DPAT as the radioligand
[3] = biological target: 5-hydroxytryptamine receptor 1D (Homo sapiens, UniProt P28221); assay: Mean binding affinity towards 5-hydroxytryptamine 1D receptor using [3H]5-HT or [3H]-8-OH-DPAT as the radioligand
[4] = Oral bioavailability in rat; format: ADME, organism-based; conditions: in vivo
[5] = Brain/blood concentration after administration in rat; format: ADME, tissue-based; conditions: read-out: Brain/Blood concentration
[6] = biological target: T3, 5-hydroxytryptamine receptor 1A (Homo sapiens) (UniProt P08908); assay: Partial agonist efficacy in the 5-HT1A GTPgammaS functional assay; Expressed as fraction of 5-HT efficacy
T3 sequence (whole entry): T1 sequence (P08908 whole entry)

[7] = biological target: T2, 5-hydroxytryptamine receptor 1B; assay: Partial agonist efficacy in the 5-HT1B GTPgammaS functional assay; Expressed as fraction of 5-HT efficacy
[8] = In vivo clearance after administration in rat; format: ADME, organism-based; conditions: blood, read-out: CLb
[9] = biological target: T3, 5-hydroxytryptamine receptor 1A (Homo sapiens); assay: Partial agonist efficacy in the 5-HT1A GTPgammaS functional assay; Expressed as fraction of 5-HT efficacy; Inactive

5-hydroxytryptamine receptor 1D, sequence (P28221 whole entry): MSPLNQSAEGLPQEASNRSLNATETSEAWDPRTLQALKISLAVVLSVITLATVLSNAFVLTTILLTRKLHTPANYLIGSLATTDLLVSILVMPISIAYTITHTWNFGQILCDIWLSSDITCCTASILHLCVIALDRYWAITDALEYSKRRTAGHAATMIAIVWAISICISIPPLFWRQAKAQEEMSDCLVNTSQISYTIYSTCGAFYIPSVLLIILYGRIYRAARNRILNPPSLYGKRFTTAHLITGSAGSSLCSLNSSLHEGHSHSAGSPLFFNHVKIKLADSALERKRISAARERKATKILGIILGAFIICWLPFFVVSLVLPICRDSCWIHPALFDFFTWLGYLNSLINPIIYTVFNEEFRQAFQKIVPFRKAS
T2 sequence (P28222 whole entry): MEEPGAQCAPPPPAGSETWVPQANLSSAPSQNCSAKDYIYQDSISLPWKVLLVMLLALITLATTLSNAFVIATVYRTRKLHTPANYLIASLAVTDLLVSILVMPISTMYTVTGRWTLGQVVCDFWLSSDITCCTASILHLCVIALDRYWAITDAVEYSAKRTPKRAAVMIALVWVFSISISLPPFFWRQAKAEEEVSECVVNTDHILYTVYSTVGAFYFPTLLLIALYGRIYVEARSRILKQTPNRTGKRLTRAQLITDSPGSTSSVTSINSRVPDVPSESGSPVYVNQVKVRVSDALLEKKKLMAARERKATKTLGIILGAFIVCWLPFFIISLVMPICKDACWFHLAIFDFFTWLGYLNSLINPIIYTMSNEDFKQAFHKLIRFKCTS

SMILES | Ki [1] [nM] | Ki [2] [nM] | Ki [3] [nM] | bioavailability [4] [%] | Kp [5] | Efficacy [6] | Efficacy [7] | clearance [8] [mL/min/kg] | Efficacy [9]
CCc1c(C(=O)N2CCc3cc4ccnc(N5CCNCC5)c4cc32)cnn1-c1ccc(C#N)cc1 | 1.26 | 2.51 | 2.51 | – | – | – | – | – | –
CN1CCN(c2cc3c(cc2Cl)CCN3C(=O)Nc2ccc(-c3ccncc3)c3ccccc23)CC1 | 10 | 7.94 | 2 | – | – | – | – | – | –
CCc1c(C(=O)N2CCc3cc4ccnc(N5CCN(CC)CC5)c4cc32)cnn1-c1ccc(C#N)cc1 | 3.16 | 1.58 | 2.51 | – | – | – | – | – | –
Cc1cc(C(=O)N2CCc3cc4ccnc(N5CCN(C)CC5)c4cc32)c(C(F)(F)F)o1 | 5.01 | 2 | 7.94 | – | – | – | – | – | –
CCc1c(C(=O)N2CCc3cc4ccnc(N5CCN6CCC[C@@H]6C5)c4cc32)cnn1-c1ccc(C#N)cc1 | 1.58 | 1 | 1 | – | – | – | – | – | –
CN1CCN(c2nccc3cc4c(cc23)N(C(=O)c2cnn(C)c2C(F)(F)F)CC4)CC1 | 6.31 | 5.01 | 10 | – | 0.1 | – | – | 48 | –
CCc1c(C(=O)N2CCc3cc4ccnc(N5CCN(C(C)C)CC5)c4cc32)cnn1-c1ccc(C#N)cc1 | 6.31 | 3.98 | 7.94 | – | – | – | – | – | –
CCc1c(C(=O)N2CCc3cc4ccnc(N5C[C@@H](C)N[C@@H](C)C5)c4cc32)cnn1-c1ccc(C#N)cc1 | 31.6 | 7.94 | 7.94 | – | – | – | – | – | –
CCc1c(C(=O)N2CCc3cc4ccnc(N5CCN6CCC[C@H]6C5)c4cc32)cnn1-c1ccc(C#N)cc1 | 1.26 | 2 | 3.16 | – | – | – | – | – | –

Continued, values first:

Ki [1] [nM] | Ki [2] [nM] | Ki [3] [nM] | bioavailability [4] [%] | Kp [5] | Efficacy [6] | Efficacy [7] | clearance [8] [mL/min/kg] | Efficacy [9] | SMILES
0.631 | 0.631 | 0.631 | 40 | 1.1 | 0.54 | 0.59 | 32 | – | Cc1c(C(=O)N2CCc3cc4ccnc(N5CCN(C)CC5)c4cc32)cnn1-c1ccccc1
1 | 0.501 | 0.794 | – | 0.7 | 0.84 | 0.86 | 19 | – | CN1CCN(c2nccc3cc4c(cc23)N(C(=O)c2ccc(C#N)cc2)CC4)CC1
0.316 | 1 | 1.26 | – | – | – | – | – | – | CN1CCN(c2nccc3cc4c(cc23)N(C(=O)c2cnn3ccccc23)CC4)CC1
10 | 15.8 | 15.8 | – | – | – | 0.23 | – | inactive | CN1CCN(c2nccc3cc4c(cc23)N(C(=O)c2ccccc2C(F)(F)F)CC4)CC1
3.98 | 0.794 | 3.98 | – | 0.2 | – | – | 75 | – | CN1CCN(c2nccc3cc4c(cc23)N(C(=O)c2cccc3ncccc23)CC4)CC1
6.31 | 15.8 | 2.51 | 55 | 0.5 | – | – | 39 | – | Cc1nc(C)c(C(=O)N2CCc3cc4ccnc(N5CCN(C)CC5)c4cc32)o1
0.794 | 0.316 | 0.501 | – | 1.3 | 0.69 | 0.75 | 29 | – | CN1CCN(c2nccc3cc4c(cc23)N(C(=O)c2ccc(Cl)cc2)CC4)CC1
5.01 | 1.26 | 2.51 | – | – | 0.42 | 0.42 | – | – | CN1CCN(c2nccc3cc4c(cc23)N(C(=O)c2ccccc2Cl)CC4)CC1
3.16 | 0.251 | 0.501 | – | – | – | – | – | – | CN1CCN(c2nccc3cc4c(cc23)N(C(=O)c2ccc(C(F)(F)F)nc2)CC4)CC1
1.26 | 1 | 0.631 | 50 | 0.5 | 0.33 | 0.47 | 28 | – | CCc1c(C(=O)N2CCc3cc4ccnc(N5CCN(C)CC5)c4cc32)cnn1-c1ccc(C#N)cc1
